Converted amounts (≈) assume the structure as drawn. Where a name gives a salt, the structure may show the parent alone.
Tests used:
[1] = Solubility of ocaperidone salts and free base in water; details: for solubility in water (in words): crystalline salt, HPLC grade water pH=6, 25° C., 1 h and 24 h, compared with salts of examples 1, 3-10 and free base
Description: In particular, the solubilities of ocaperidone salts were measured as follows:
UV/visible spectrophotometer: Agilent 8453E
Volumetric flask (5 ml, 10 ml, 20 ml, 100 ml) Mechanical pipettes: Biohit (m1000, m200)
Magnetic stirrer: Heidolph MR3001K
A suspension of 100 mg of crystalline ocaperidone salt or ocaperidone free base in 1 ml HPLC grade pure water (pH=6) was prepared. The suspension was kept at fixed and controlled temperature (ex: 25° C.) under magnetic stirring for 24 hours. A sample was taken, filtered and the solubility of the ocaperidone salts or ocaperidone free base was measured after 1 h and 24 h. Results are given in g/100 ml.

[2] = Solubility of ocaperidone free base in acid solution; assay type: physicochemical; details: acid solution at pH=1.3

solubility in water (in words) ([1]; listed as ocaperidone pyroglutamic salt)	times more soluble than the succinic acid addition salt ([1]; ocaperidone salt solubility study in water, ratio to succinic acid addition salt) [times]	solubility thermodynamic ([1]; 25 °C, pH 6, water, thermodynamic from solid) [µg/mL]	solubility in acid solution [2] [g/100 ml]	Compound	solubility in water (in words) [1]
unexpectedly high solubility	31.2	–	–	Cc1nc2c(C)cccn2c(=O)c1CCN1CCC(c2noc3cc(F)ccc23)CC1 [Example 2, Ocaperidone Pyroglutamic Acid Salt]	higher solubility in water than the other salts
–	–	7 (≈ 16.6 µM)	0.25	Cc1nc2c(C)cccn2c(=O)c1CCN1CCC(c2noc3cc(F)ccc23)CC1 [ocaperidone, 3-[2-[4-(6-fluoro-1,2-benzisoxazol-3-yl)-1-piperidinyl]ethyl]-2,9-dimethyl-pyrido-[1,2-a]pyrimidin-4-one]	–

Reference: patent publication US20080200479A1, “Ocaperidone Salts and Pharmaceutical Compositions Containing the Same” (priority 2005, published 2008)
